This is an account of results in DBAASP.

Test systems include Acinetobacter baumannii; Klebsiella pneumoniae; Pseudomonas aeruginosa; Bacillus megaterium Bm11.
Assay in all cases: ≥ marks a high value that may be exact or a test limit, other limits are often not marked, values filed in µg/mL are converted to µM
In test [1] the test system is Candida albicans KCTC 7270.
Test [2] concerns Escherichia coli CCARM 1229.
Test [3] concerns Escherichia coli CCARM 1238.
Test [4] has as its system Pseudomonas aeruginosa 4007.
For test [5], the system named is Pseudomonas aeruginosa 4891.
Test [6] relates to Staphylococcus aureus CCARM 3090.
Test [7] concerns Staphylococcus aureus CCARM 3518.
Test [8] has as its system Trichosporon beigelii KCTC 7707.
Test [9] has as its system Acinetobacter baumannii ATCC 19606.
Test [10] deals with Bacillus subtilis ATCC 6051.
Test [11] concerns Candida albicans ATCC 90028.
The subject of test [12] is Cryptococcus neoformans ATCC 208821.
The subject of test [13] is Escherichia coli ATCC 25922.
For test [14], the system named is Klebsiella pneumoniae ATCC 13883.
In test [15] the test system is Klebsiella pneumoniae ATCC 700603.
Test [16] concerns Klebsiella pneumoniae ATCC BAA-2146.
The subject of test [17] is Pseudomonas aeruginosa ATCC 27853.
Test [18] relates to Staphylococcus aureus ATCC 43300.
For test [19], the system named is Bacillus subtilis KCTC 3068.
The test system of test [20] is Enterococcus faecalis ATCC 51575.
The test system of test [21] is Enterococcus faecalis KCCM 29212.
Test [22] concerns Enterococcus faecium ATCC 51559.
Test [23] deals with Enterococcus faecium KCCM 12118.
Test [24] deals with Escherichia coli KCTC 1682.
The test system of test [25] is Pseudomonas aeruginosa KCTC 1637.
Test [26] relates to Salmonella typhimurium KCTC 1926.
Test [27] has as its system Staphylococcus aureus KCCM 40510.
Test [28] relates to Staphylococcus aureus KCTC 1621.
Test [29] has as its system Staphylococcus epidermidis KCTC 1917.
For test [30], the system named is Aeromonas hydrophila TISTR 1321.
Test [31] deals with Bacillus cereus TISTR 1449.
In test [32] the test system is Bacillus megaterium TISTR 067.
For test [33], the system named is Bacillus subtilis TISTR 1248.
The subject of test [34] is Candida albicans TISTR 5554.
Test [35] has as its system Edwardsiella tarda DMST 38217.
Test [36] deals with Enterococcus faecalis TISTR 927.
Test [37] has as its system Escherichia coli DH5alpha.
The subject of test [38] is Pseudomonas aeruginosa TISTR 1287.
Test [39] concerns Salmonella enterica subsp. enterica serovar Derby DMST 16881.
The subject of test [40] is Salmonella typhimurium TISTR 1472.
Test [41] has as its system Staphylococcus aureus ATCC 25923.
For test [42], the system named is Staphylococcus aureus TISTR 746.
The test system of test [43] is Enterobacter cloacae ATCC 49141.
Test [44] relates to Enterococcus faecalis ATCC 19433.
Test [45] has as its system Klebsiella aerogenes ATCC 35029.
The test system of test [46] is Staphylococcus aureus ATCC 6538P.
Test [47] has as its system Streptococcus pyogenes ATCC 49399.

Values after ≈ are worked out from the molar mass of the structure shown.

With `CC[C@H](C)[C@H](NC(=O)[C@H](C)NC(=O)[C@H](CCC(=O)O)NC(=O)[C@H](Cc1cnc[nH]1)NC(=O)[C@@H](NC(=O)[C@H](CCCCN)NC(=O)[C@H](CCC(N)=O)NC(=O)[C@H](Cc1ccccc1)NC(=O)[C@@H](NC(=O)[C@H](CCCCN)NC(=O)[C@H](CCCCN)NC(=O)[C@H](CC(C)C)NC(=O)[C@H](C)NC(=O)[C@H](CC(N)=O)NC(=O)[C@H](CC(C)C)NC(=O)CN)C(C)C)[C@@H](C)CC)C(=O)N[C@@H](CCCCN)C(=O)N[C@@H](CCCCN)C(=O)N[C@H](C(=O)N[C@@H](CC(N)=O)C(=O)N[C@@H](CC(N)=O)C(=O)N[C@@H](Cc1cnc[nH]1)C(=O)N[C@H](C(=O)N[C@@H](CCC(N)=O)C(N)=O)C(C)C)[C@@H](C)CC` [GLNALKKVFQKIHEAIKKINNHVQ], the minimal inhibitory concentration (MIC) in test [1] is no less than 32 µM; in [2] it was 4 µM (≈ 11.1 µg/mL); in test [3] it was 4 µM (≈ 11.1 µg/mL); in [4], 2 µM (≈ 5.54 µg/mL); in test [5], 4 µM (≈ 11.1 µg/mL); in test [6] it was 8 µM (≈ 22.2 µg/mL). Further, the MIC was 4 µM (≈ 11.1 µg/mL) in [7] and no less than 32 µM in [8].
For `CC[C@H](C)[C@@H]1NC(=O)CNC(=O)[C@H](CCCN=C(N)N)NC(=O)[C@H](Cc2ccc(O)cc2)NC(=O)[C@H](C)NC(=O)[C@H](C(C)C)NC(=O)[C@H](CCCN=C(N)N)NC(=O)[C@H](Cc2ccccc2)NC(=O)[C@@H](NC(=O)[C@H](Cc2c[nH]c3ccccc23)NC(=O)[C@@H](N)CCCCN)CSSC[C@@H](C(=O)N[C@@H](CCCN=C(N)N)C(=O)O)NC(=O)[C@H](CCCN=C(N)N)NC(=O)[C@H](CCCN=C(N)N)NC(=O)[C@H](Cc2ccc(O)cc2)NC(=O)[C@H](C)NC1=O` [KWCFRVAYRGIAYRRCR], the minimum inhibitory concentration (MIC) amounted to 0.113 µM (≈ 0.25 µg/mL) in [9]; 0.113 µM (≈ 0.25 µg/mL) in the test with Acinetobacter baumannii; 0.0567 µM (≈ 0.125 µg/mL) in test [10]; 3.63 µM (≈ 7.99 µg/mL) in test [11]; 0.454 µM (≈ 0.999 µg/mL) in test [12]; 0.0567 µM (≈ 0.125 µg/mL) in [13]. The minimum inhibitory concentration (MIC) in [14] is 0.113 µM (≈ 0.25 µg/mL); in test [15] it was 0.907 µM (≈ 2 µg/mL); in test [16] it was 0.454 µM (≈ 0.999 µg/mL); in the test on Klebsiella pneumoniae, 7.26 µM (≈ 16 µg/mL); in [17] it was 0.454 µM (≈ 0.999 µg/mL); in the test on Pseudomonas aeruginosa, 0.907 µM (≈ 2 µg/mL). The compound also returned a minimal inhibitory concentration (MIC) in test [18] of 0.907 µM (≈ 2 µg/mL).
In the case of `CC[C@H](C)[C@H](NC(=O)[C@H](CC(C)C)NC(=O)[C@H](CC(C)C)NC(=O)[C@@H](N)CC(C)C)C(=O)N[C@@H](C)C(=O)N[C@@H](CC(C)C)C(=O)N[C@@H](CCCN=C(N)N)C(=O)N[C@@H](CCCCN)C(=O)N[C@@H](CCCCN)C(N)=O` [LLLIALRKK], the minimum inhibitory concentration (MIC) in test [19] is 3.75 µM (≈ 4 µg/mL); in [20] it was 7.49 µM (≈ 7.99 µg/mL); in [21], 3.75 µM (≈ 4 µg/mL); in [22], 1.87 µM (≈ 2 µg/mL); in test [23] it was 3.75 µM (≈ 4 µg/mL); in [24], 3.75 µM (≈ 4 µg/mL). Also, the MIC in test [25] was 3.75 µM (≈ 4 µg/mL); in test [26] it was 1.87 µM (≈ 2 µg/mL); in [27] it was 3.75 µM (≈ 4 µg/mL); in test [28], 3.75 µM (≈ 4 µg/mL); in test [29] it was 1.87 µM (≈ 2 µg/mL).
For `CC(C)C[C@H](NC(=O)[C@H](CCCCN)NC(=O)[C@@H](NC(=O)[C@H](CO)NC(=O)[C@H](Cc1ccccc1)NC(=O)[C@H](CC(C)C)NC(=O)[C@H](Cc1c[nH]c2ccccc12)NC(=O)[C@@H](NC(=O)[C@H](CS)NC(=O)[C@H](CC(N)=O)NC(=O)[C@@H](N)CCCN=C(N)N)[C@@H](C)O)[C@@H](C)O)C(=O)N[C@@H](CCCCN)C(=O)N[C@@H](CC(C)C)C(=O)N1CCC[C@H]1C(=O)N[C@@H](C)C(=O)O` [RNCTWLFSTKLKLPA], the MIC in [30] is no less than 225 µM; in test [31], no less than 225 µM; in test [32], 7.03 µM (≈ 12.5 µg/mL); in [33] it was 14.1 µM (≈ 25 µg/mL); in test [34] it was no less than 225 µM; in [35], no less than 225 µM. The MIC is no less than 56.2 µM in test [36]; 112 µM (≈ 200 µg/mL) in test [13]; no less than 112 µM in [37]; no less than 225 µM in [38]; no less than 225 µM in test [39]; no less than 225 µM in test [40]. For the same compound, the MIC is 225 µM (≈ 400 µg/mL) in test [41] and no less than 225 µM in test [42].
`CC[C@H](C)[C@H](NC(=O)[C@H](Cc1c[nH]c2ccccc12)NC(=O)[C@H](Cc1ccccc1)NC(=O)[C@@H]1CCCN1C(=O)[C@H](CCCN=C(N)N)NC(=O)[C@@H](N)CCCN=C(N)N)C(=O)N[C@H](C(=O)N[C@@H](CCCN=C(N)N)C(=O)N[C@@H](CCCN=C(N)N)C(N)=O)[C@@H](C)CC` [RRPFWIIRR]: the minimum inhibitory concentration (MIC) in the test on Bacillus megaterium Bm11 is 1.25 µM (≈ 1.62 µg/mL); in [43], no less than 80 µM; in test [44] it was no less than 80 µM; in [13], 80 µM (≈ 104 µg/mL); in test [45], no less than 80 µM; in test [17], greater than 80 µM. Moreover, the minimal inhibitory concentration (MIC) in test [46] is no less than 80 µM; in test [47] it was 10 µM (≈ 13 µg/mL).

A word on the MIC: it is the smallest concentration in the dilution series that meets the test's criterion for growth inhibition. Higher therefore signals weaker potency.
